Laboratory results: patent US20190263799A1, “1H-IMIDAZO[4,5-B]PYRIDINYL AND 2-OXO-2,3-DIHYDRO-1H-IMIDAZO[4,5-B]PYRIDINYL HETEROCYCLIC BET BROMODOMAIN INHIBITORS” (ZENITH EPIGENETICS LTD., priority 2015, published 2019)
pIC50: −log10 of the molar value. Where two headings read alike, the source gives them in different places.

Experiments:
[1] = tested on: cMYC; assay: Inhibition of cMYC expression in cancer cell lines (MV4-11, real-time PCR); format: cell-based; details: Homo sapiens, read-out: Myc activity
Protocol: MV4-11 cells (CRL-9591) were plated at a density of 2.5×10^4 cells per well in 96 well U-bottom plates and treated with increasing concentrations of test compound or DMSO (0.1%) in IMDM media containing 10% FBS and penicillin/streptomycin, and incubated for 3 h at 37° C. Triplicate wells were used for each concentration. Cells were pelleted by centrifugation and harvested using the mRNA Catcher PLUS kit according to manufacturer's instructions. The eluted mRNA isolated was then used in a one-step quantitative real-time PCR reaction, using components of the RNA UltraSense™ One-Step Kit (Life Technologies) together with Applied Biosystems TaqMan® primer-probes for cMYC and Cyclophilin. Real-time PCR plates were run on a ViiA™7 real time PCR machine (Applied Biosystems), data were analyzed, normalizing the Ct values for cMYC to an internal control, prior to determining the fold expression of each sample, relative to the control.

[2] = tested on: BCL2; assay: Durability of BCL2 expression inhibition after washout in MV4-11 cells; format: cell-based; details: Homo sapiens
Protocol: (§1) MV4-11 cells were treated for 3 hours after which compounds were removed, cells washed with media 3 times, replaced with media; harvest was performed 5 hours post washout and the expression of MYC and BCL2 was determined.
(§2) MV4-11 cells (CRL-9591) were plated at a density of 2.5×10^4 cells per well in 96 well U-bottom plates and treated with increasing concentrations of test compound or DMSO (0.1%) in IMDM media containing 10% FBS and penicillin/streptomycin, and incubated for […] 37° C. after which the compounds are removed, replaced with media and cells were harvested at 5 hours post washout. Triplicate wells were used for each concentration. Cells were pelleted by centrifugation and harvested using the mRNA Catcher PLUS kit according to manufacturer's instructions. The eluted mRNA isolated was then used in a one-step quantitative real-time PCR reaction, using components of the RNA UltraSense™ One-Step Kit (Life Technologies) together with Applied Biosystems TaqMan® primer-probes for cMYC and Cyclophilin. Real-time PCR plates were run on a ViiA™7 real time PCR machine (Applied Biosystems), data was analyzed, normalizing the Ct values for MYC and BCL2 to an internal control, prior to determining the fold expression of each sample, relative to the control.

[3] = molecular target: T1, BRD4(1) (Homo sapiens, UniProt O60885); assay: Inhibition of tetra-acetylated histone H4 binding to individual BET bromodomains (AlphaScreen); details: His-tagged BRD4(1) 20 nM, biotinylated tetra-acetylated histone H4 peptide, 30 min incubation; read-out: FRET activity BRD4(1)
T1 construct: N-terminally His-tagged bromodomains (BRD4(1) at 20 nM and BRD4(2) at 100 nM); made in house; host or cells: E. coli BL21(DE3)
Protocol: Proteins were cloned and overexpressed with a N-terminal 6×His tag, then purified by nickel affinity followed by size exclusion chromatography. Briefly, E. coli BL21(DE3) cells were transformed with a recombinant expression vector encoding N-terminally Nickel affinity tagged bromodomains from Brd2, Brd3, Brd4. Cell cultures were incubated at 37° C. with shaking to the appropriate density and induced overnight with IPTG. The supernatant of lysed cells was loaded onto Ni-IDA column for purification. Eluted protein was pooled, concentrated and further purified by size exclusion chromatography. Fractions representing monomeric protein were pooled, concentrated, aliquoted, and frozen at −80° C. for use in subsequent experiments.
Binding of tetra-acetylated histone H4 peptide (Millipore) and BET bromodomains was confirmed by Amplified Luminescent Proximity Homogenous Assay (AlphaScreen). N-terminally His-tagged bromodomains (BRD4(1) at 20 nM and BRD4(2) at 100 nM) and biotinylated tetra-acetylated histone H4 (10-25 nM) were incubated in the presence of nickel chelate acceptor beads and streptavidin donor beads (PerkinAlmer, 6760000K) added to a final concentration of 2 μg/mL under green light in a white 96 well microtiter plate (Greiner). For inhibition assays, serially diluted compounds were added to the reaction mixtures in a 0.1% final concentrations of DMSO. Final buffer concentrations were 50 mM HEPES, 100 mM NaCl and 0.1% BSA buffer, pH 7.4 and optimized to 30 min incubation time. Assay plates were read at 570 nm on a Synergy H4 Plate Reader (Biotek). IC50 values were determined from a dose response curve.

[4] = tested on: MV4-11 cells; assay: Inhibition of cell proliferation in cancer cell lines (MV4-11, CellTiter Aqueous One); format: cell-based; details: Homo sapiens, read-out: Proliferation activity
Protocol: MV4-11 cells (CRL-9591) were plated at a density of 5×10^4 cells per well in 96 well flat bottom plates and treated with increasing concentrations of test compound or DMSO (0.1%) in IMDM media containing 10% FBS and penicillin/streptomycin. Triplicate wells were used for each concentration and a well containing only media was used as a control. Plates were incubated at 37° C., 5% CO2 for 72 h before adding 20 μL of the CellTiter Aqueous One Solution (Promega) to each well and incubating at 37° C., 5% CO2 for an additional 3-4 h. The absorbance was read at 490 nm in a spectrophotometer and the percentage of cell titer relative to DMSO-treated cells was calculated after correcting for background by subtracting the blank well's signal. IC50 values were calculated using the GraphPad Prism software.

[5] = tested on: MV4-11 cells; assay: Washout proliferation: durability of proliferation inhibition in MV4-11 cells; format: cell-based; details: Homo sapiens
Protocol: FIG. 1 depicts inhibition of proliferation. […] MV4-11 cells were treated for 16 hours after which compounds were removed, cells washed 3 times with media, replaced with media and proliferation was measured at 72 h post washout.
MV4-11 cells (CRL-9591) were plated at a density of 5×10^4 cells per well in 96 well flat bottom plates and treated with increasing concentrations of compounds or DMSO (0.1%) in IMDM media containing 10% FBS and penicillin/streptomycin. Triplicate wells were used for each concentration and a well containing only media was used as a control. Plates were incubated at 37° C., 5% CO2 for 16 h after which the compounds were removed, replaced with media, and proliferation was measured at 72 hours post washout by adding 100 μL of the Cell Titer Fluor 96 Cell Viability Assay (Promega). After the incubation for 45 min at 37° C. with 5% CO2 fluorescence is read on the Synergy plate reader set at 380-400 nm Ex/505 nm. Percentage of cell viability to DMSO-treated cells was calculated after correcting for background by subtracting the blank well's signal. IC50 values were calculated using the GraphPad Prism software from the dose-dependent inhibition of proliferation.

[6] = tested on: MYC; assay: Durability of MYC expression inhibition after washout in MV4-11 cells; format: cell-based; details: Homo sapiens
Protocol: as §1, §2

| SMILES | pIC50 ([1]; MV4-11 cells, 3 h incubation, cMYC mRNA) | pIC50 ([2]; MV4-11 cells treated 3 h, washed, harvested 5 h post washout, read-out: IC50 of BCL2 inhibition at 5 hours post washout) | pIC50 [3] | pIC50 ([4]; MV4-11 cells, 72 h incubation) | pIC50 ([5]; MV4-11 cells treated 16 h, washed, proliferation measured 72 h post washout, read-out: IC50 of inhibition of proliferation after 72 hours of compound removal) | pIC50 ([6]; MV4-11 cells treated 3 h, washed, harvested 5 h post washout, read-out: IC50 of sustained MYC inhibition at 5 h post washout) | pIC50 ([1]; MV4-11, 3 h) | pIC50 ([2]; MV4-11, read-out: IC50 of BCL2 inhibition at 5 hours post washout) | pIC50 ([4]; MV4-11, 72 h) | pIC50 ([5]; MV4-11, read-out: IC50 of inhibition of proliferation after 72 hours of compound removal) | pIC50 ([6]; MV4-11, read-out: IC50 of sustained MYC inhibition at 5 h post washout) |
| --- | --- | --- | --- | --- | --- | --- | --- | --- | --- | --- | --- |
| CC(=O)N(C)c1cnc2nc(N3CCCC3)n(Cc3ccccc3)c2c1 [Example 18, N-(1-Benzyl-2-(pyrrolidin-1-yl)-1H-imidazo[4,5-b]pyridin-6-yl)-N-methylacetamide] | 5.52 to 6.52 | ~4.30 | ≥ 6.52 | 5.52 to 6.52 | ~4.30 | 4.54 |  |  |  |  |  |
| C=CC(=O)N(C)c1cnc2nc(N3CCCC3)n(Cc3ccccc3)c2c1 [Example 15, N-(1-Benzyl-2-(pyrrolidin-1-yl)-1H-imidazo[4,5-b]pyridin-6-yl)-N-methylacrylamide] |  |  | ≥ 6.52 |  |  |  | 5.52 to 6.52 | 5.10 | 5.52 to 6.52 | 5.22 | 4.64 |
